Assay results as given in ChEMBL document CHEMBL1201862, “PubChem BioAssay data set” (2004).
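A five-concentration, 48-hour dose response in 96-well plates underlies each endpoint, interpolated linearly between surrounding concentrations. Here, GI50 denotes the concentration required for 50% inhibition of growth.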 The source made the active and inactive calls. Cut-off read from the data, not from the text of the source: active = GI50 up to about 1.1 µM and inactive = higher.

Assays:
Assay in all cases: NCI tumour cell line growth inhibition, 48 h
[1] = test system: A498
[2] = test system: A549
[3] = test system: ACHN
[4] = test system: BT-549
[5] = test system: HCT-116
[6] = test system: HCT-15
[7] = test system: HOP-62
[8] = test system: IGROV-1
[9] = test system: KM12
[10] = test system: M14
[11] = test system: MOLT-4
[12] = test system: NCI-H23
[13] = test system: NCI-H460
[14] = test system: OVCAR-5
[15] = test system: SF-539
[16] = test system: SK-MEL-5
[17] = test system: SW-620
[18] = test system: UACC-62
[19] = test system: CCRF-CEM
[20] = test system: Malme-3M

Structure (SMILES)	GI50 [1]	GI50 [2]	GI50 [3]	GI50 [4]	GI50 [5]	GI50 [6] [µM]	GI50 [7]	GI50 [8]	GI50 [9]	GI50 [10]	GI50 [11]	GI50 [12]	GI50 [13]	GI50 [14]	GI50 [15]	GI50 [16]	GI50 [17]	GI50 [18]	GI50 [19]	GI50 [20]
CCOP(=O)(OCC)/C(=C\n1c(=S)[nH]c2cc(C)ccc21)C(=O)OC	> 100 µM (inactive)	> 100 µM (inactive)	> 100 µM (inactive)	> 100 µM (inactive)	> 100 µM (inactive)	> 100	> 100 µM (inactive)	> 100 µM (inactive)	> 100 µM (inactive)	> 100 µM (inactive)	> 100 µM (inactive)	> 100 µM (inactive)	> 100 µM (inactive)	> 100 µM (inactive)	> 100 µM (inactive)	> 100 µM (inactive)	> 100 µM (inactive)	> 100 µM (inactive)	–	–
Cn1c2ccccc2c(=S)c2cc(NC(=O)CCCCC(=O)Nc3ccc4c(c3)c(=S)c3ccccc3n4C)ccc21	> 100 µM (inactive)	> 100 µM (inactive)	> 100 µM (inactive)	> 100 µM (inactive)	> 100 µM (inactive)	> 100	54.7 µM (inactive)	> 100 µM (inactive)	> 100 µM (inactive)	> 100 µM (inactive)	> 100 µM (inactive)	> 100 µM (inactive)	> 100 µM (inactive)	> 100 µM (inactive)	> 100 µM (inactive)	> 100 µM (inactive)	> 100 µM (inactive)	> 100 µM (inactive)	> 100 µM (inactive)	–
Nc1csc(-c2scc3c2OCCO3)c1N	17.6 µM (inactive)	21.4 µM (inactive)	36.4 µM (inactive)	16.5 µM (inactive)	20 µM (inactive)	17.7	15.6 µM (inactive)	22.5 µM (inactive)	20.4 µM (inactive)	17.8 µM (inactive)	27.8 µM (inactive)	15.5 µM (inactive)	22.5 µM (inactive)	17.6 µM (inactive)	24.9 µM (inactive)	14.9 µM (inactive)	26.2 µM (inactive)	14.4 µM (inactive)	–	16 µM (inactive)
CCCC(Sc1nc(N)nc2nc[nH]c12)C(=O)O (stereo unspecified)	> 100 µM (inactive)	> 100 µM (inactive)	> 100 µM (inactive)	> 100 µM (inactive)	42.1 µM (inactive)	91.6	> 100 µM (inactive)	> 100 µM (inactive)	> 100 µM (inactive)	53.2 µM (inactive)	33.2 µM (inactive)	> 100 µM (inactive)	67 µM (inactive)	63.1 µM (inactive)	–	> 100 µM (inactive)	> 100 µM (inactive)	36.6 µM (inactive)	81.5 µM (inactive)	> 100 µM (inactive)
O=C1CCCC2=C1CC1=C(CCCC1=O)N2c1ccccc1C(=O)O	> 100 µM (inactive)	> 100 µM (inactive)	> 100 µM (inactive)	> 100 µM (inactive)	–	> 100	–	> 100 µM (inactive)	> 100 µM (inactive)	> 100 µM (inactive)	> 100 µM (inactive)	> 100 µM (inactive)	> 100 µM (inactive)	> 100 µM (inactive)	> 100 µM (inactive)	> 100 µM (inactive)	> 100 µM (inactive)	> 100 µM (inactive)	> 100 µM (inactive)	–
Cc1ccc2nc(-c3ccc(NC(=O)c4ccc(N)cc4)c(S(=O)(=O)O)c3)sc2c1	> 100 µM (inactive)	> 100 µM (inactive)	> 100 µM (inactive)	> 100 µM (inactive)	> 100 µM (inactive)	> 100	> 100 µM (inactive)	> 100 µM (inactive)	> 100 µM (inactive)	> 100 µM (inactive)	> 100 µM (inactive)	> 100 µM (inactive)	> 100 µM (inactive)	> 100 µM (inactive)	–	> 100 µM (inactive)	> 100 µM (inactive)	> 100 µM (inactive)	> 100 µM (inactive)	> 100 µM (inactive)
c1ccc([P+](CCSCCSCC[P+](c2ccccc2)(c2ccccc2)c2ccccc2)(c2ccccc2)c2ccccc2)cc1	> 100 µM (inactive)	> 100 µM (inactive)	> 100 µM (inactive)	> 100 µM (inactive)	> 100 µM (inactive)	> 100	> 100 µM (inactive)	> 100 µM (inactive)	> 100 µM (inactive)	> 100 µM (inactive)	> 100 µM (inactive)	> 100 µM (inactive)	> 100 µM (inactive)	> 100 µM (inactive)	> 100 µM (inactive)	> 100 µM (inactive)	> 100 µM (inactive)	64.4 µM (inactive)	–	–
O=C(O)c1cc(NCc2cc(O)ccc2O)ccc1O [LAVENDUSTIN C]	> 100 µM (inactive)	> 100 µM (inactive)	> 100 µM (inactive)	> 100 µM (inactive)	49.9 µM (inactive)	> 100	> 100 µM (inactive)	> 100 µM (inactive)	> 100 µM (inactive)	–	–	> 100 µM (inactive)	> 100 µM (inactive)	> 100 µM (inactive)	> 100 µM (inactive)	> 100 µM (inactive)	23.8 µM (inactive)	> 100 µM (inactive)	10.6 µM (inactive)	–
